Test results taken from patent US12351574B2, “Selective ligands for modulation of GIRK channels” (Northeastern University, priority 2018, dated 2025).
Where “and” joins values, the source holds several entries; their conditions need not be identical. Equal values may be shown once. Entries after “also recorded” stand apart in the source; their conditions may differ. Read-outs that look alike come from different tables or passages of the source.

Biological target: T1, GIRK1/2 (UniProt P48542+P48549)
T1 sequence (P48549 1-501): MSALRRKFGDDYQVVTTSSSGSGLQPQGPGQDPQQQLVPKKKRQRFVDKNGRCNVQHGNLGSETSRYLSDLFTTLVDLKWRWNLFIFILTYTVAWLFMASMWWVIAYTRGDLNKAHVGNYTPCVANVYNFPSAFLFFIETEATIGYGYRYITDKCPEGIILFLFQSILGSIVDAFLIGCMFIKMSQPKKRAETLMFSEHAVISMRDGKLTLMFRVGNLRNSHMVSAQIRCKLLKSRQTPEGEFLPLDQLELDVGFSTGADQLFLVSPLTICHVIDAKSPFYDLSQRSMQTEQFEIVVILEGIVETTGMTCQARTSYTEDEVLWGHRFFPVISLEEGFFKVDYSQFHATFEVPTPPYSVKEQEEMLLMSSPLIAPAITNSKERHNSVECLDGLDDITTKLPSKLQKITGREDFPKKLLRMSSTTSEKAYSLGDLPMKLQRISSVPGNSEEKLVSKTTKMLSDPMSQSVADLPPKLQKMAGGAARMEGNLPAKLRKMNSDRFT
T1 sequence (P48542 1-425): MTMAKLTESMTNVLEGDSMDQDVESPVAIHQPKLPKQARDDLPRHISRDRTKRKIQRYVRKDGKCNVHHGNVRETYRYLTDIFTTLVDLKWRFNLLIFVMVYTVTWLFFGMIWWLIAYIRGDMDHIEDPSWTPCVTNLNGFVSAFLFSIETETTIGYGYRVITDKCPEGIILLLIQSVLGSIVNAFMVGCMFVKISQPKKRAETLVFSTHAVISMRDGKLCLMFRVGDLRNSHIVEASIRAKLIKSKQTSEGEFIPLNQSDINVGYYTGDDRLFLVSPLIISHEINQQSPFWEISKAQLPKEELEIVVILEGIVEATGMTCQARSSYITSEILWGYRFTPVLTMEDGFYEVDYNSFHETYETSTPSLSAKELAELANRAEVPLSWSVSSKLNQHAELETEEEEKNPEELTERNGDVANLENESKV
Assay: two-electrode voltage clamp (TEVC) in Xenopus oocytes expressing GIRK1/2 wild-type
Assay type: cell-based, human GIRK1, mouse GIRK2
Set-up: expressed in transfected cells; host or cells: Xenopus laevis oocytes (cRNA injection)
Conditions: for selectivity for GIRK1/2 over GIRK1/4 (in words) / EC50: TEVC; for selectivity for GIRK1/2 over GIRK1/4 (in words): GIRK1/2 versus GIRK1/4; for EC50: Xenopus oocytes, GIRK1/2 wild-type; for EMAX at GIRK1/2: current normalized to basal current
Description: Molecular biology: For Xenopus oocyte expression, human GIRK1 and human GIRK4 cDNAs were subcloned into pGEMHE. For mammalian expression, human GIRK1 and human GIRK4 cDNAs were subcloned into pcDNA3 and pcDNA3.1/V5-His B, respectively (Invitrogen). Mouse GIRK2 cDNA was subcloned in the dual-function vector, pXoom. Point mutations were introduced using a standard Pfu-based mutagenesis technique according to the QuikChange protocol (Agilent). Mutations were verified by sequencing.
Xenopus laevis oocyte expression: Plasmid DNAs of GIRK channel subunits were linearized prior to in vitro transcription. Capped RNAs were transcribed using mMESSAGE mMACHINE T7 Transcription Kit (Thermo Fisher Scientific). Xenopus oocytes were surgically extracted, dissociated and defolliculated by collagenase treatment, and microinjected with 50 nl of a water solution containing 1 ng of each GIRK subunit RNA. For TEVC experiments, oocytes were kept 2 days at 17° C. before recording, while for NPo experiments oocytes were incubated for up to 4 days at 17° C.
Xenopus laevis oocyte expression: All cDNA constructs in the pGEMHE vector were linearized using the NheI restriction enzyme, whereas those in the pXoom vector were linearized using the XhoI restriction enzyme. Linearized cDNAs were in vitro-transcribed using the mMessage mMachine® kit (Ambion) kit. Complementary RNA (cRNA) concentrations were quantified by optical density. Xenopus oocytes were surgically extracted, dissociated, and defolliculated by collagenase treatment and microinjected with 50 nl of the desired cRNAs diluted in RNAase-free water. The use of Xenopus laevis frogs for this study was approved by the Institutional Animal Care and Use Committee (IACUC) at Northeastern University. All constructs used in this study were injected to achieve between 1-2 ng per oocyte depending on the channel. Oocytes were incubated for 2 days at 18° C.
Electrophysiology of oocytes: Whole-oocyte currents were measured by conventional two-electrode voltage clamp (TEVC) with a GeneClamp 500 amplifier (Axon Instruments). […] Barium-sensitive currents were normalized to average basal current in the vehicle solutions. The HK solution contained the following: 96 mM KCl, 1 mM NaCl, 1 mM MgCl2, 5 mM KOH/HEPES, pH 7.4. The barium solution consisted of HK+10 mM BaCl2. Five to ten oocytes from the same batch (same frog) were recorded for each group, and the experiments were repeated in at least four batches. Data acquisition and analysis were carried out using pClamp9 (Molecular Devices) and OriginPro (Microcal) software.

[1] = ML297 considered 100%, read-out: EMAX at GIRK1/2, % relative to ML297

## Cc1cc(NC(=O)Nc2ccc(Br)s2)n(-c2ccccc2)n1 [GAT1508, 1-(5-bromothiophen-2-yl)-3-(3-methyl-1-phenyl-1H-pyrazol-5-yl)urea]
10 μM, 10 mM K+, holding potential −100 mV
  GAT1508-induced potassium current, GIRK1/2 (in words): significantly increased currents
10 μM, 10 mM thallium, holding potential −100 mV
  GAT1508-induced thallium current, GIRK1/2 (in words): induced current increases
GAT1508 at wild-type GIRK1/2 considered 100%, read-out: EMAX, % of the control GIRK1/2
  Emax: 100%
[1]
  Emax: 76%
  selectivity for GIRK1/2 over GIRK1/4 (in words): most selective GIRK1/2 activators relative to GIRK1/4; also recorded: could induce the current increase only in the brain channel
  EC50: 370 ± 110 nM
  EMAX at GIRK1/2: 2.42±0.07 and 2.36±0.23

## Cc1cc(NC(=O)Nc2ccc(C)s2)n(-c2ccccc2)n1 [GAT1521, 1-(3-methyl-1-phenyl-1H-pyrazol-5-yl)-3-(5-methylthiophen-2-yl)urea]
[1]
  Emax: 73%
  selectivity for GIRK1/2 over GIRK1/4 (in words): most selective GIRK1/2 activators relative to GIRK1/4; also recorded: retained the specificity for brain over cardiac currents; also recorded: could induce the current increase only in the brain channel
  EC50: 1220 ± 80 nM
  EMAX at GIRK1/2: 2.36±0.06
concentration-response, FIGS. 34A-34I
  potency/efficacy compared to GAT1508 (in words): lower potency than GAT1508

## Cc1cc(NC(=O)Nc2ccc(F)c(F)c2)n(-c2ccccc2)n1 [ML297, reference compound]
10 μM, High Potassium (HK) solution, FIG. 31
  compound-induced current normalized to the basal current, GIRK1+GIRK2: ~2.5
ML297 considered 100%
  EMAX at GIRK1/2, % relative to ML297: 100%
  selectivity for GIRK1/2 over GIRK1/4 (in words): stimulated both brain and cardiac heteromeric channels
  EC50: 340 ± 120 nM
  EMAX at GIRK1/2: 2.87±0.11
